Read-outs that look alike come from different tables or passages of the source. Where a SMILES comes first, the peptide text is derived from it.
Key:
S. aureus = test: Transmission electron microscopy of S. aureus cells treated with peptides; assay type: cell-based, Staphylococcus aureus subsp. aureus CECT 4013; details: 25 μg/mL, 1 h
Procedure: The samples were prepared in the same way as for scanning electron microscopy, except for the series of graded dehydration with ethanol, in which only the 90° grade was reached. Then the samples were included in resin in 4 steps: ethanol 96°—resin LR-White 2:1 (20 h), ethanol 100°—resin 2:1 (20 h), ethanol 100°—resin 1:2 (20 h) and 100% resin (24 h at 60° C.). After the samples were included in the resin the block was prepared for ultrathin cuts of 60 nm in the equipment Leica UC6 Ultracut Microtome.
Transmission electron microscopy provides high-resolution images which were used to view the ultrastructural damage caused by the peptides inside the bacteria. The cells of S. aureus CECT 4013 were treated with the peptides hBD-3, TcDef3-pep and PaSK at a concentration of 25 μg/mL, for 1 h, and analysed using transmission electron microscopy (FIG. 6). In cells without treatment, an intact cytoplasm membrane (3) and peptidoglycane wall (2) were observed, typical of a Gram+ bacteria as S. aureus, as well as a division septum (1) without malformations, while in treated cells different types of alterations were observed. […] Small size circular structures (9) are observed. These structures show a different electrodensity from cells and lack a cytoplasm membrane and peptidoglycane wall. The biofilm formed by the cells treated with peptides was also observed in the images obtained by transmission electron microscopy (FIG. 7) and it was not observed in the cells treated with human defensin hBD-3 (FIG. 6).

[1] = test system: MDA-MB-231 triple-negative breast cancer cells; test: Cell viability MTS assay, cytotoxic effect; assay type: cell-based, human; details: around 100 μM (400 μg/mL)
Procedure: (§1) Cell viability was determined by the MTS method. The MDA-MB-231 cells cultured in plates with 96 wells at 37° C. in an atmosphere humidified with 10% CO2 to a density of 5×10^3 cells/well were incubated with different concentrations of the peptide PaSK for 24 h. Then 20 μL were added of the solution MTS/PMS (3-(4,5-dimethylthiazol-2-yl)-5-(3-carboxymethoxyfenyl)-2-(4-sulphophenyl)-2H-tetrazole/phenazine methosulphate) to each well and after incubating for 2 h in the dark the absorbance at 490 nm was read in a plate reader. The percentage reduction in number of cells was calculated according to the formula (1−E/C)×100, where E is the absorbance of the cells treated with the peptide and C is the absorbance of the samples of the control cells.
(§2) The cytotoxic effect of the peptide PaSK has been studied in two cell lines of triple-negative breast cancer cells, one human (MDA-MB-231) and one mouse (4T1), and a line of normal mouse mammary epithelial cells (HC-11). To this end, a cell viability MTS assay was performed, based on the use of a compound derived from tetrazolium that is reduced in live cells to form a soluble coloured product. […]

[2] = Cell viability MTS assay, cytotoxic effect; assay type: cell-based; details: mouse, HC-11 normal mammary epithelial cells, approximately 200 μM (700 μg/mL), 0.5% bovine foetal serum
Procedure: as §1, §2

MDA-MB-231 tumour cells = test: Cell cycle analysis by flow cytometry (CycleTEST PLUS, ModFit LT); assay type: cell-based, human; details: 100 μg/mL, 72 h
Procedure: The MDA-MB-231 cells were cultured in dishes with 6 wells with a density of 5×10^4 cells per well, in which 200 μL or 400 μL of PaSK were added (final concentrations 100 μg/mL and 200 μg/mL) or the same volume of the medium (solvent used to dilute the peptide) in the corresponding controls. The cells were incubated at 37° C. for 72 h.
For the cell line analysis, the CycleTEST™ PLUS DNA Reagent Kit (Sigma-Aldrich) was used. Two washes were carried out using citrate buffer (containing sodium citrate, saccharose and dimethyl sulphoxide (DMSO)), centrifuging the samples in each one at 300×g for 5 min, and one final wash was performed in which the number of cells was adjusted to 5×10^5 and centrifuged at 400×g for 5 min, and then adding 250 μL of solution A (containing trypsin in a detergent buffer with spermine tetrahydrochloride), 200 μL of solution B (containing an inhibitor of trypsin and ribonuclease A, in a stabilising buffer of citrate with spermine tetrahydrochloride) and 200 μL of solution C (includes PI and the stabilising buffer with spermine tetrahydrochloride), leaving between the addition of each solution an interval of 10 min at room temperature and performing the last one, before filtering, in a cold chamber and in the dark. The analyses of cell death produced by the peptide and of the stage of cell cycle of the cells were performed with the equipment BD Facs Verse (Becton Dickinson). The cell cycle modelling was performed with the software Modfit LT, version 3.3.11. The experiments were performed in duplicate.
In this example, the cytotoxic and antiproliferative activity of the peptide PaSK is assessed by flow cytometry, performing an analysis of cell viability and an analysis of the cell cycle. After treatment of the tumour cells MDA-MB-231 with 200 μg/mL (cell viability experiments) and 100 μg/mL (analysis of cell cycle) of PaSK the percentage of viable cells was determined, as well as the stage of the cell cycle in which proliferation was stopped.

MDA-MB-231 cells = test: Differential proteomic analysis by SWATH; assay type: cell-based, human

## CC[C@H](C)[C@H](NC(=O)[C@H](CCCNC(=N)N)NC(=O)[C@H](CCCNC(=N)N)NC(=O)[C@H](CCCCN)NC(=O)[C@H](CC(N)=O)NC(=O)[C@H](CS)NC(=O)[C@H](Cc1ccc(O)cc1)NC(=O)CNC(=O)CNC(=O)[C@H](CCCNC(=N)N)NC(=O)[C@H](CCCCN)NC(=O)[C@H](CCCNC(=N)N)NC(=O)[C@H](CCCCN)NC(=O)[C@H](CC(C)C)NC(=O)[C@H](CC(C)C)NC(=O)[C@H](CS)NC(=O)[C@H](Cc1c[nH]cn1)NC(=O)[C@H](C)NC(=O)[C@H](C)NC(=O)[C@H](CS)NC(=O)[C@H](C)NC(=O)[C@H](C)NC(=O)[C@H](Cc1c[nH]cn1)NC(=O)[C@H](CC(N)=O)NC(=O)[C@@H](NC(=O)[C@@H](N)CCCCN)C(C)C)C(=O)N[C@@H](CS)C(=O)N[C@H](C(=O)N[C@@H](CS)C(=O)N[C@@H](CCCNC(=N)N)C(=O)N[C@@H](CC(N)=O)C(=O)O)C(C)C [PaSK] (H-KVNHAACAAHCLLKRKRGGYCNKRRICVCRN-OH; N-terminus and C-terminus assumed)
S. aureus
  ultrastructural damage, transmission electron microscopy: detachments, malformations and thinning of the membrane
[1]
  cytotoxicity compared with the other cell lines: significantly more cytotoxic
[2]
  mortality at 24 h, 200 μM: ~50%
MDA-MB-231 tumour cells
  percentage of cells in stage G1: 57.9%
  percentage of cells in stage G2: 9.0%
  percentage of cells in stage S: 33.2%
MDA-MB-231 cells
  T/C change ratio: 1.45
MDA-MB-231 cells; ASNA_HUMAN, ATPase ASNA1
  T/C change ratio: 0.21
MDA-MB-231 cells; BAZ1B_HUMAN, Tyrosine-protein kinase BAZ1B
  T/C change ratio: 0.31
MDA-MB-231 cells; CALD1_HUMAN, Caldesmon
  T/C change ratio: 0.71
MDA-MB-231 cells; CDCP1_HUMAN, Protein 1 containing domain CUB
  T/C change ratio: 1.22
MDA-MB-231 cells; CK068_HUMAN, UPF0696 protein C11orf68
  T/C change ratio: 0.83
MDA-MB-231 cells; DCUP_HUMAN, Uroporfphyrinogen decarboxylase
  T/C change ratio: 0.21
MDA-MB-231 cells; DDX17_HUMAN, Probable DDX17 ATP-dependent RNA helicase
  T/C change ratio: 0.84
MDA-MB-231 cells; DENR_HUMAN, Density regulated protein
  T/C change ratio: 0.31
MDA-MB-231 cells; DHX36_HUMAN, DHX36 ATP-dependent RNA helicase
  T/C change ratio: 0.27
MDA-MB-231 cells; DPOD1_HUMAN, DNA polymerase delta catalytic subunit
  T/C change ratio: 0.50
MDA-MB-231 cells; EIF3B_HUMAN, Eukaryotic translation initiation factor 3B (EIF3B)
  T/C change ratio: 0.84
MDA-MB-231 cells; FXR1_HUMAN, Fragile X mental retardation protein 1
  T/C change ratio: 0.76
MDA-MB-231 cells; GPX1_HUMAN, Glutathione peroxidase 1 (GPX1)
  T/C change ratio: 5.89
MDA-MB-231 cells; KAD2_HUMAN, Adenylate kinase 2, mitochondrial
  T/C change ratio: 0.51
MDA-MB-231 cells; LARP1_HUMAN, La related protein 1 (LARP1)
  T/C change ratio: 0.28
MDA-MB-231 cells; MANF_HUMAN, Mesencephalic astrocyte-derived neurotrophic factor
  T/C change ratio: 0.63
MDA-MB-231 cells; MMP14_HUMAN, Matrix metalloprotease-14
  T/C change ratio: 1.92
MDA-MB-231 cells; PYRG1_HUMAN, CTP synthase 1
  T/C change ratio: 0.82
MDA-MB-231 cells; RL5_HUMAN, 60 S ribosomal protein L5 (RPSL5)
  T/C change ratio: 0.60
MDA-MB-231 cells; RS13_HUMAN, 40S ribosomal protein S13 (RPS13)
  T/C change ratio: 0.82
MDA-MB-231 cells; SDCB1_HUMAN, Sintenin-1
  T/C change ratio: 1.43
MDA-MB-231 cells; SET_HUMAN, SET protein
  T/C change ratio: 0.90
MDA-MB-231 cells; SH3G1_HUMAN, Endophilin-A2
  T/C change ratio: 0.63
MDA-MB-231 cells; SHLB2_HUMAN, Endophilin-B2
  T/C change ratio: 0.29
MDA-MB-231 cells; SQRD_HUMAN, Sulphide: quinone oxidoreductase (SQRDL), mitochondrial
  T/C change ratio: 1.30
MDA-MB-231 cells; TAGL2_HUMAN, Transgelin-2
  T/C change ratio: 0.75
MDA-MB-231 cells; TM9S4_HUMAN, Member 4 of the transmembrane 9 superfamily
  T/C change ratio: 0.37
MDA-MB-231 cells; TPM4_HUMAN, Tropomyosin alpha-4 chain
  T/C change ratio: 0.74
MDA-MB-231 cells; TRXR1_HUMAN, Thioredoxin reductase 1 (TXNRD1), cytoplasmic
  T/C change ratio: 1.59
MDA-MB-231 cells; U2AF2_HUMAN, U2AF union factor 65 kDa subunit
  T/C change ratio: 0.31
